Measured values reported in PMC9332470, “Production and Selection of Antibody–Antigen Pairs for the Development of Immunoenzyme Assay and Lateral Flow Immunoassay Methods for Carbofuran and Its Analogues” (Biosensors, 2022).
Converted amounts (≈) assume the structure as drawn.

Experiments:
[1] = tested on: mAb 13C8; experiment: indirect competitive ELISA (icELISA) with mAb 13C8; format: binding, BALB/c mice; conditions: for IC50 (ELISA): optimized ELISA, mAb 13C8 0.03 μg/mL, coating antigen 0.1 μg/mL, given as MDA-BSA and MDA-OVA, unit from text
Protocol: (§1) Microplates were coated with coating antigens. Different concentrations of the standard (50 µL) and the mAb (50 µL) were added to each well, and the plates were incubated for 20 min at 37 °C. The plates were washed with PBS (0.01 M, containing 0.05% (v/v) Triton X-100), 100 μL of goat anti-mouse IgG-HRP conjugate solution was added to each well, and the plates were incubated for 20 min at 37 °C. After the plates were washed with PBS (0.01 M, containing 0.05% Triton X-100, v/v), 100 µL of TMB single-component substrate solution was added to each well, followed by incubation at 37 °C for 10 min. Finally, the reaction was terminated, and the absorbance at 450 nm was measured by a microplate reader.
(§2) Taking the logarithm of the carbofuran concentration as the abscissa and (B/B0)% as the ordinate, the standard curves for ELISA and QD-LFIA were obtained based on the Morgan–Mercer–Flodin (MMF) model, which were fitted by CurveExpert 1.4.0 software (https://www.curveexpert.net, accessed on 15 July 2022). For the ELISA method, B and B0 are the absorbance of the sample well and blank well, respectively. For the QD-LFIA method, B and B0 are the T/C (fluorescence intensity of the test line/fluorescence intensity of the control line) of the sample and blank control, respectively.
(§3) The inhibition ratio (I%) was calculated as (B0-B)/B0 × 100%. IC50 is the concentration of the carbofuran at an I% of 50%, and the limit of detection (LOD) was determined as the concentration showing 10% of inhibition.
(§4) The cross-reactivities (CRs) of benfuracarb, carbosulfan, 3-hydroxy-carbofuran, metolcarb, carbaryl, isoprocarb and aldicarb with carbofuran were assessed by ELISA and QD-LFIA. CR was calculated as CR (%) = [IC50 (carbofuran)/IC50 (analogues)] × 100%.
The microplate was coated with the coating antigens DDB-BSA (1 µg/mL), DDB-OVA (0.5 µg/mL), MDA-BSA (0.2 µg/mL) and MDA-OVA (0.1 µg/mL), and the concentration of mAb 13C8 was 0.03 µg/mL. Carbofuran standards (0, 0.05, 0.15, 0.45, 1.35 and 4.05 ng/mL) were detected to obtain a standard curve, and the IC50 was calculated. […] In the icELISA used in this study, free antigen (carbofuran) in solution competed with the coating antigen on the microplate for antibody 13C8; therefore, the IC50 value was negatively correlated with the antibody-binding ability of free antigen competing with coating antigens.
The ELISA method was developed with the antibody 13C8–antigen MDA-BSA pair. Under the optimized coating antigen concentration (0.1 μg/mL), HRP-conjugated goat anti-mouse IgG concentration (1 μg/mL), antibody concentration (0.03 μg/mL) and working buffer parameters (5 mM PBS at pH 7.4), a standard curve was obtained with the concentration of carbofuran on the abscissa and the inhibition ratio (B/B0) on the ordinate.

[2] = tested on: mAb 13C8; experiment: quantum dot-based LFIA (QD-LFIA) with mAb 13C8; format: binding, BALB/c mice; conditions: for IC50 (QD-LFIA): optimized QD-LFIA, mAb 13C8-QD, T line antigen 30 μg/mL, given as MDA-BSA and MDA-OVA
Protocol: One milliliter of QDs was added to 9 mL of MES (0.054 M at pH 6.0) and centrifuged at 10,956× g for 20 min. Then, the precipitate was resuspended in 10 mL of MES (0.05 M at pH 6.0). After dispersion by ultrasonication for 2 min, EDC (20 mg) and NHS (20 mg) were added, and the reaction mixture was incubated for 30 min, followed by centrifugation at 10,956× g for 20 min. The precipitate was resuspended in 10 mL of MES (0.05 M at pH 6.0). Then, 1 mg of the mAb dissolved in 10 mL MES (0.027 M at pH 8.0) was added to the QD mixture and shaken at 25 °C and 180 rpm for 90 min. After the reaction, 5 mL of MES (0.054 M at pH 6.0 containing 1.6% BSA, w/v) was added, and the mixture was shaken at 25 °C and 180 rpm for 40 min, followed by centrifugation at 10,956× g for 20 min. The precipitate was resuspended in 10 mL of PB (0.01 M at pH 6.0, containing 5% casein, 1% glucose, 1.5% alanine and 0.05% NaN3, w/v) and dispersed by ultrasonication for 2 min.
The conjugate pad (6 mm × 300 mm) was pretreated with PBS (containing 0.5% Triton X-100, 0.5% alanine and 0.05% NaN3, w/v). Then, 1 mL of the mAb–QD conjugate was sprayed onto the pretreated conjugate pad at a flow rate of 10 μL/cm, and the pad was dried at 37 °C for 2 h. Other applied protocols were similar to those mentioned above.
as §2, §3, §4
Then, to prepare QD-LFIA test strips, DDB-BSA (40 μg/mL), DDB-OVA (50 μg/mL), MDA-BSA (35 μg/mL) and MDA-OVA (30 μg/mL) were dispensed onto the NC membrane, and antibody 13C8 was conjugated to the QDs. Carbofuran standards (0, 0.05, 0.15, 0.45, 1.35 and 4.05 ng/mL) were detected to obtain a standard curve, and the IC50 was calculated. […] In LFIA, carbofuran in solution competed with the coating antigen on the NC membrane for antibody 13C8 conjugated to the QDs.
A standard curve was developed with the inhibition ratio (B/B0) versus the logarithm of the concentration of carbofuran.

[3] = tested on: broad-specificity mAb with the immunogen BFNB-BSA; conditions: cited from earlier work
[4] = tested on: mAb with the immunogen 3-succinyl-carbofuran-KLH; conditions: cited from earlier work
[5] = tested on: mAb 13C8; experiment: ELISA reactivity of hybridoma supernatant, cell line 13C8; format: binding, BALB/c mice; conditions: cell line 13C8 supernatant, 50 ng/mL pesticide
Protocol: (§5) The desired antibodies with the highest affinity were screened by icELISA with carbofuran as a competitive compound, and hybridoma cells were cloned by the limited dilution method. Then, the selected hybridoma cells were injected into mice for ascites production. Finally, the mAbs were purified by (NH4)2SO4 with saturation of 50% and further purified by an SPA column.
as §1, §3
(§6) Then, the reactivity of the supernatant of the six cell lines to 50 ng/mL carbofuran, benfuracarb and carbosulfan was assessed by ELISA, and the results are shown in Table 1. […] Because 13C8 had the highest reactivity with carbofuran, benfuracarb and carbosulfan among the six cell lines, it was injected into mice for ascites production, and the mAbs were purified by a protein A column for further experiments.

[6] = tested on: mAb 6D6; experiment: ELISA reactivity of hybridoma supernatant, cell line 6D6; format: binding, BALB/c mice; conditions: cell line 6D6 supernatant, 50 ng/mL pesticide
Protocol: as §5, §1, §3, §6

[7] = tested on: mAb 12D6; experiment: ELISA reactivity of hybridoma supernatant, cell line 12D6; format: binding, BALB/c mice; conditions: cell line 12D6 supernatant, 50 ng/mL pesticide
Protocol: as §5, §1, §3, §6

[8] = tested on: mAb 18G3; experiment: ELISA reactivity of hybridoma supernatant, cell line 18G3; format: binding, BALB/c mice; conditions: cell line 18G3 supernatant, 50 ng/mL pesticide
Protocol: as §5, §1, §3, §6

[9] = tested on: mAb 12H5; experiment: ELISA reactivity of hybridoma supernatant, cell line 12H5; format: binding, BALB/c mice; conditions: cell line 12H5 supernatant, 50 ng/mL pesticide
Protocol: as §5, §1, §3, §6

[10] = tested on: mAb 7F9; experiment: ELISA reactivity of hybridoma supernatant, cell line 7F9; format: binding, BALB/c mice; conditions: cell line 7F9 supernatant, 50 ng/mL pesticide
Protocol: as §5, §1, §3, §6

| Compound | IC50 (ELISA) [1] | IC50 (QD-LFIA) [2] | CR(%) (ic-ELISA) [3] | IC50 (ic-ELISA) [3] | further results |
| --- | --- | --- | --- | --- | --- |
| CNC(=O)Oc1cccc(C)c1 [metolcarb] | >0.02 µg/mL | >0.1 µg/mL |  |  |  |
| CNC(=O)Oc1ccccc1OC(C)C [propoxur] |  |  | 25.8% | 0.03475 µg/mL (≈ 0.166 µM) |  |
| CNC(=O)Oc1cccc2c1OC(C)(C)C2O (centres unmarked) [3-hydroxy-carbofuran] | 0.00025 ± 5e-05 µg/mL (≈ 0.00105 µM) | 0.00087 ± 6e-05 µg/mL (≈ 0.00367 µM) |  |  | CR(%) (ic-ELISA) [4]: 110.1%; IC50 (ic-ELISA) [4]: 0.00069 ± 8e-05 µg/mL (≈ 0.00291 µM) |
| CNC(=O)Oc1cccc2ccccc12 [carbaryl] | >0.02 µg/mL | >0.1 µg/mL | 8.5% | 0.10559 µg/mL (≈ 0.525 µM) |  |
| CNC(=O)Oc1ccccc1C(C)C [isoprocarb] | >0.02 µg/mL | >0.1 µg/mL | 50.7% | 0.01768 µg/mL (≈ 0.0915 µM) | CR (%) (ELISA) ([1]; CR = IC50(carbofuran)/IC50(analogue) x 100%, optimized ELISA with mAb 13C8): <1%; CR (%) (QD-LFIA) ([2]; CR = IC50(carbofuran)/IC50(analogue) x 100%, QD-LFIA with mAb 13C8): <1% |
| CCOC(=O)CCN(SN(C)C(=O)Oc1cccc2c1OC(C)(C)C2)C(C)C [benfuracarb] | 0.00023 ± 3e-05 µg/mL (≈ 0.00056 µM) | 0.00081 ± 7e-05 µg/mL (≈ 0.00197 µM) |  |  | Reactivity of mAb (I%) [5]: 91%; Reactivity of mAb (I%) [6]: 53%; Reactivity of mAb (I%) [7]: 55%; Reactivity of mAb (I%) [8]: 76%; Reactivity of mAb (I%) [9]: 70%; Reactivity of mAb (I%) [10]: 68% |
| CNC(=O)O/N=C/C(C)(C)SC [aldicarb] | >0.02 µg/mL | >0.1 µg/mL |  |  |  |
| CCCCN(CCCC)SN(C)C(=O)Oc1cccc2c1OC(C)(C)C2 [carbosulfan] | 0.00024 ± 4e-05 µg/mL (≈ 0.000631 µM) | 0.00084 ± 9e-05 µg/mL (≈ 0.00221 µM) | 7.7% | 0.1158 µg/mL (≈ 0.304 µM) | Reactivity of mAb (I%) [5]: 90%; Reactivity of mAb (I%) [6]: 61%; Reactivity of mAb (I%) [7]: 46%; Reactivity of mAb (I%) [8]: 71%; Reactivity of mAb (I%) [9]: 67%; Reactivity of mAb (I%) [10]: 65% |
